Measured values from patent publication US20070087744A1, “METHOD FOR REDUCING THE TIME DELAY IN A TELEPHONE SYSTEM” (priority 2003, published 2007).
Values after ≈ are worked out from the molar mass of the structure shown.

Assays:
Test in all cases: In Vitro Minimum Inhibitory Concentration
Assay type in all cases: cell-based
Acinetobacter baumannii = test system: Acinetobacter baumannii
Experimental: (§1) Subsequent dilutions had the concentration calculated in ppm. Each concentration was challenged with an equal volume of microbial inoculums. After incubation the lowest concentration showing “No-Growth” was recorded as the Minimum Inhibitory Concentration.

Bacteroides fragilis = test system: Bacteroides fragilis
Experimental: as §1

Candida albicans = test system: Candida albicans
Experimental: as §1

Candida parapsilosis = conditions: Lodderomyces parapsilosis; clinical isolate 040400Cp2
Experimental: as §1

Candida tropicalis = conditions: ATCC750, ATCC 750
Experimental: as §1

Enterobacter aerogenes = conditions: Klebsiella aerogenes
Experimental: as §1

Enterococcus faecalis = test system: Enterococcus faecalis
Experimental: as §1

Enterococcus faecium = test system: Enterococcus faecium
Experimental: as §1

Escherichia coli = conditions: for MIC: Escherichia coli
Experimental: as §1

Haemophilus influenzae = test system: Haemophilus influenzae
Experimental: as §1

Klebsiella oxytoca = test system: Klebsiella oxytoca
Experimental: as §1

Klebsiella pneumoniae = test system: Klebsiella pneumoniae
Experimental: as §1

Micrococcus luteus = conditions: ATCC7468, ATCC 7468
Experimental: as §1

MIC (Acinetobacter baumannii; ATCC19606, ATCC 19606, trypticase soy broth): 4380 µg/mL (≈ 95 mM)
MIC (Acinetobacter baumannii; clinical isolate 061901 Ab1): 8750 µg/mL (≈ 190 mM)
MIC (Bacteroides fragilis; ATCC25285, ATCC 25285): 8750 µg/mL (≈ 190 mM)
MIC (Bacteroides fragilis; clinical isolate 061901Bf2): 8750 µg/mL (≈ 190 mM)
MIC (Candida albicans; ATCC10231, ATCC 10231): 17500 µg/mL (≈ 380 mM)
MIC (Candida albicans; clinical isolate 040400Ca2): 17500 µg/mL (≈ 380 mM)
MIC (Candida parapsilosis): 17500 µg/mL (≈ 380 mM)
MIC (Candida tropicalis): 17500 µg/mL (≈ 380 mM)
MIC (Enterobacter aerogenes; ATCC13048, ATCC 13048): 8750 µg/mL (≈ 190 mM)
MIC (Enterobacter aerogenes; clinical isolate 040400Ea1): 8750 µg/mL (≈ 190 mM)
MIC (Enterococcus faecalis; ATCC29212, ATCC 29212): 8750 µg/mL (≈ 190 mM)
MIC (Enterococcus faecalis; clinical isolate 040400Esp17): 8750 µg/mL (≈ 190 mM)
MIC (Enterococcus faecium; ATCC51559, ATCC 51559): 8750 µg/mL (≈ 190 mM)
MIC (Enterococcus faecium; clinical isolate 061901Efm1): 8750 µg/mL (≈ 190 mM)
MIC (Escherichia coli; ATCC11229, ATCC 11229): 8750 µg/mL (≈ 190 mM)
MIC (Escherichia coli; ATCC25922, ATCC 25922): 8750 µg/mL (≈ 190 mM)
MIC (Escherichia coli; clinical isolate 051599Ec): 8750 µg/mL (≈ 190 mM)
MIC (Haemophilus influenzae; ATCC19418, ATCC 19418): 5830 µg/mL (≈ 127 mM)
MIC (Haemophilus influenzae; clinical isolate 121699Hi): 5830 µg/mL (≈ 127 mM)
MIC (Klebsiella oxytoca; ATCC43165, ATCC 43165): 8750 µg/mL (≈ 190 mM)
MIC (Klebsiella oxytoca; clinical isolate 061901Ko1): 8750 µg/mL (≈ 190 mM)
MIC (Klebsiella pneumoniae; ATCC13883, ATCC 13883): 4380 µg/mL (≈ 95 mM)
MIC (Klebsiella pneumoniae; clinical isolate 06190Kpn1): 8750 µg/mL (≈ 190 mM)
MIC (Micrococcus luteus): 8750 µg/mL (≈ 190 mM)
Structure (SMILES): CCO [70% ethyl alcohol, ethyl alcohol]
Minimum Inhibitory Concentration (Escherichia coli; clinical isolate 070399Ec): 8750 ppm
